In ChEMBL document CHEMBL3352542, “Synthesis, biological evaluation and molecular modeling study of 2-(1,3,4-thiadiazolyl-thio and 4-methyl-thiazolyl-thio)-quinazolin-4-ones as a new class of DHFR inhibitors” (Bioorg Med Chem Lett, 2014):
The source made the active and inactive calls. No cut-off for these calls is given here.

Columns and labels:
SF-295 = assay: (§1) Growth inhibition of human SF295 cells at 10 uM after 48 hrs; assay type: functional
CCRF-CEM = assay: Growth inhibition of human CCRF-CEM cells at 10 uM after 48 hrs; assay type: functional
SK-MEL-28 = assay: Growth inhibition of human SK-MEL-28 cells at 10 uM after 48 hrs; assay type: functional, cell-based
NCI-H522 = assay: Growth inhibition of human NCI-H522 cells at 10 uM after 48 hrs; assay type: functional
Escherichia coli = assay: Antimicrobial activity against Escherichia coli assessed as inhibition zone at 200 ug/disk after 24 hrs by disc-diffusion method; assay type: functional; settings: read-out: IZ
PC-3 = assay: (§2) Growth inhibition of human PC3 cells at 10 uM after 48 hrs; assay type: functional
SR = assay: Growth inhibition of human SR cells at 10 uM after 48 hrs; assay type: functional
RPMI-8226 = assay: (§3) Growth inhibition of human RPMI8226 cells at 10 uM after 48 hrs; assay type: functional
OVCAR-4 = assay: Growth inhibition of human OVCAR4 cells at 10 uM after 48 hrs; assay type: functional
KM12 = assay: Growth inhibition of human KM12 cells at 10 uM after 48 hrs; assay type: functional
786-0 = assay: Growth inhibition of human 786-0 cells at 10 uM after 48 hrs; assay type: functional
Bacillus subtilis = assay: Antimicrobial activity against Bacillus subtilis assessed as inhibition zone at 200 ug/disk after 24 hrs by disc-diffusion method; assay type: functional; settings: read-out: IZ
MOLT-4 = assay: (§4) Growth inhibition of human MOLT4 cells at 10 uM after 48 hrs; assay type: functional
K562 = assay: Growth inhibition of human K562 cells at 10 uM after 48 hrs; assay type: functional
UACC-62 = assay: (§5) Growth inhibition of human UACC62 cells at 10 uM after 48 hrs; assay type: functional
SK-MEL-5 = assay: Growth inhibition of human SK-MEL-5 cells at 10 uM after 48 hrs; assay type: functional
HOP-62 = assay: Growth inhibition of human HOP62 cells at 10 uM after 48 hrs; assay type: functional
Malme-3M = assay: Growth inhibition of human MALME-3M cells at 10 uM after 48 hrs; assay type: functional
Staphylococcus aureus = assay: Antimicrobial activity against Staphylococcus aureus assessed as inhibition zone at 200 ug/disk after 24 hrs by disc-diffusion method; assay type: functional; settings: read-out: IZ
MDA-MB-231 = assay: Growth inhibition of human MDA-MB-231 cells at 10 uM after 48 hrs; assay type: functional
HOP-92 = assay: Growth inhibition of human HOP92 cells at 10 uM after 48 hrs; assay type: functional
U-251 = assay: Growth inhibition of human U251 cells at 10 uM after 48 hrs; assay type: functional
MCF7 = assay: Growth inhibition of human MCF7 cells at 10 uM after 48 hrs; assay type: functional
HCT-15 = assay: Growth inhibition of human HCT15 cells at 10 uM after 48 hrs; assay type: functional
SNB-19 = assay: Growth inhibition of human SNB19 cells at 10 uM after 48 hrs; assay type: functional
MDA-MB-435 = assay: Growth inhibition of human MDA-MB-435 cells at 10 uM after 48 hrs; assay type: functional
Pseudomonas aeruginosa = assay: Antimicrobial activity against Pseudomonas aeruginosa assessed as inhibition zone at 200 ug/disk after 24 hrs by disc-diffusion method; assay type: functional; settings: read-out: IZ
UO-31 = assay: (§6) Growth inhibition of human UO31 cells at 10 uM after 48 hrs; assay type: functional
HCT-116 = assay: Growth inhibition of human HCT116 cells at 10 uM after 48 hrs; assay type: functional
MDA-MB-468 = assay: Growth inhibition of human MDA-MB-468 cells at 10 uM after 48 hrs; assay type: functional
SF-539 = assay: Growth inhibition of human SF539 cells at 10 uM after 48 hrs; assay type: functional
HL-60(TB) = assay: Growth inhibition of human HL-60(TB) cells at 10 uM after 48 hrs; assay type: functional
UACC-257 = assay: Growth inhibition of human UACC257 cells at 10 uM after 48 hrs; assay type: functional
A549 = assay: Growth inhibition of human A549 cells at 10 uM after 48 hrs; assay type: functional
NCI-H226 = assay: Growth inhibition of human NCI-H226 cells at 10 uM after 48 hrs; assay type: functional
T47D = assay: Growth inhibition of human T47D cells at 10 uM after 48 hrs; assay type: functional
HT-29 = assay: Growth inhibition of human HT-29 cells at 10 uM after 48 hrs; assay type: functional
Candida albicans = assay: Antimicrobial activity against Candida albicans assessed as inhibition zone at 200 ug/disk after 24 hrs by disc-diffusion method; assay type: functional; settings: read-out: IZ
RXF 393 = assay: Growth inhibition of human RXF393 cells at 10 uM after 48 hrs; assay type: functional
Dihydrofolate reductase = target: T1, Dihydrofolate reductase (Bos taurus, UniProt P00376); assay: Inhibition of bovine liver DHFR
T1 sequence (P00376 whole entry): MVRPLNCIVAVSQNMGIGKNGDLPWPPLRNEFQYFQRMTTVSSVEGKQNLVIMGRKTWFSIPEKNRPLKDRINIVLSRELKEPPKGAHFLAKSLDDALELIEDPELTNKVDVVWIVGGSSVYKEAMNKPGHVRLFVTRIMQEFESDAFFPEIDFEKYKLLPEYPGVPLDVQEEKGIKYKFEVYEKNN

Hs-578T = assay: Growth inhibition of human Hs 578T cells at 10 uM after 48 hrs; assay type: functional
A498 = assay: Growth inhibition of human A498 cells at 10 uM after 48 hrs; assay type: functional
CAKI-1 = assay: Growth inhibition of human CAKI-1 cells at 10 uM after 48 hrs; assay type: functional
[1] = as §1; assay type: functional; settings: SF-295, 48 h, read-out: GI
[2] = as §2; assay type: functional; settings: PC-3, 48 h, read-out: GI
[3] = as §3; assay type: functional; settings: RPMI-8226, 48 h, read-out: GI
[4] = as §4; assay type: functional; settings: MOLT-4, 48 h, read-out: GI
[5] = as §5; assay type: functional; settings: UACC-62, 48 h, read-out: GI
NCI-H23 = assay: Growth inhibition of human NCI-H23 cells at 10 uM after 48 hrs; assay type: functional; settings: NCI-H23, 48 h, read-out: GI
[6] = as §6; assay type: functional; settings: UO-31, 48 h, read-out: GI

## Cc1ccc2nc(Sc3nnc(N)s3)n(-c3ccccc3)c(=O)c2c1
SF-295
  growth inhibition (GI): inactive
CCRF-CEM
  growth inhibition (GI): inactive
SK-MEL-28
  growth inhibition (GI): inactive
NCI-H522
  growth inhibition (GI): inactive
Escherichia coli
  zone of inhibition at 200 µg/disc: 8 mm
PC-3
  growth inhibition (GI): inactive
SR
  growth inhibition (GI): inactive
RPMI-8226
  growth inhibition (GI): inactive
OVCAR-4
  growth inhibition (GI): inactive
KM12
  growth inhibition (GI): inactive
786-0
  growth inhibition (GI): inactive
Bacillus subtilis
  zone of inhibition at 200 µg/disc: 8 mm
MOLT-4
  growth inhibition (GI): inactive
K562
  growth inhibition (GI): inactive
UACC-62
  growth inhibition (GI): inactive
SK-MEL-5
  growth inhibition (GI): inactive
HOP-62
  growth inhibition (GI): inactive
Malme-3M
  growth inhibition (GI): inactive
Staphylococcus aureus
  zone of inhibition at 200 µg/disc: 8 mm
MDA-MB-231
  growth inhibition (GI): inactive
HOP-92
  growth inhibition (GI): inactive
U-251
  growth inhibition (GI): inactive
MCF7
  growth inhibition (GI): inactive
HCT-15
  growth inhibition (GI): inactive
SNB-19
  growth inhibition (GI): inactive
MDA-MB-435
  growth inhibition (GI): inactive
Pseudomonas aeruginosa
  zone of inhibition at 200 µg/disc: 8 mm
UO-31
  growth inhibition (GI): inactive
HCT-116
  growth inhibition (GI): inactive
MDA-MB-468
  growth inhibition (GI): inactive
SF-539
  growth inhibition (GI): inactive
HL-60(TB)
  growth inhibition (GI): inactive
UACC-257
  growth inhibition (GI): inactive
A549
  growth inhibition (GI): inactive
NCI-H226
  growth inhibition (GI): inactive
T47D
  growth inhibition (GI): inactive
HT-29
  growth inhibition (GI): inactive
Candida albicans
  zone of inhibition at 200 µg/disc: 8 mm
RXF 393
  growth inhibition (GI): inactive
Dihydrofolate reductase
  IC50: 7 µM
Hs-578T
  growth inhibition (GI): inactive
A498
  growth inhibition (GI): inactive
CAKI-1
  growth inhibition (GI): inactive

## COc1cc2nc(Sc3nnc(N)s3)n(-c3ccc(C)cc3)c(=O)c2cc1OC
SF-295
  growth inhibition (GI): inactive
CCRF-CEM
  growth inhibition (GI): inactive
SK-MEL-28
  growth inhibition (GI): inactive
NCI-H522
  growth inhibition (GI): inactive
Escherichia coli
  zone of inhibition at 200 µg/disc: 8 mm
PC-3
  growth inhibition (GI): inactive
SR
  growth inhibition (GI): inactive
RPMI-8226
  growth inhibition (GI): inactive
OVCAR-4
  growth inhibition (GI): inactive
KM12
  growth inhibition (GI): inactive
786-0
  growth inhibition (GI): inactive
Bacillus subtilis
  zone of inhibition at 200 µg/disc: 15 mm
MOLT-4
  growth inhibition (GI): inactive
K562
  growth inhibition (GI): inactive
UACC-62
  growth inhibition (GI): inactive
SK-MEL-5
  growth inhibition (GI): inactive
HOP-62
  growth inhibition (GI): inactive
Malme-3M
  growth inhibition (GI): inactive
Staphylococcus aureus
  zone of inhibition at 200 µg/disc: 14 mm
MDA-MB-231
  growth inhibition (GI): inactive
HOP-92
  growth inhibition (GI): inactive
U-251
  growth inhibition (GI): inactive
MCF7
  growth inhibition (GI): inactive
HCT-15
  growth inhibition (GI): inactive
SNB-19
  growth inhibition (GI): inactive
MDA-MB-435
  growth inhibition (GI): inactive
Pseudomonas aeruginosa
  zone of inhibition at 200 µg/disc: 8 mm
UO-31
  growth inhibition (GI): inactive
HCT-116
  growth inhibition (GI): inactive
MDA-MB-468
  growth inhibition (GI): inactive
SF-539
  growth inhibition (GI): inactive
HL-60(TB)
  growth inhibition (GI): inactive
UACC-257
  growth inhibition (GI): inactive
A549
  growth inhibition (GI): inactive
NCI-H226
  growth inhibition (GI): inactive
T47D
  growth inhibition (GI): inactive
HT-29
  growth inhibition (GI): inactive
Candida albicans
  zone of inhibition at 200 µg/disc: 8 mm
RXF 393
  growth inhibition (GI): inactive
Dihydrofolate reductase
  IC50: 1 µM
Hs-578T
  growth inhibition (GI): inactive
A498
  growth inhibition (GI): inactive
CAKI-1
  growth inhibition (GI): inactive

## Nc1nnc(Sc2nc3ccc(Cl)cc3c(=O)n2Cc2ccccc2)s1
[1]
  inhibition of growth at 10 µM: 13.5%
Escherichia coli
  zone of inhibition at 200 µg/disc: 12 mm
[2]
  inhibition of growth at 10 µM: 12.8%
[3]
  inhibition of growth at 10 µM: 17.3%
Bacillus subtilis
  zone of inhibition at 200 µg/disc: 8 mm
[4]
  inhibition of growth at 10 µM: 16.8%
K562; K562, 48 h, read-out: GI
  inhibition of growth at 10 µM: 24.8%
[5]
  inhibition of growth at 10 µM: 17.5%
Malme-3M; read-out: GI
  inhibition of growth at 10 µM: 19.2%
Staphylococcus aureus
  zone of inhibition at 200 µg/disc: 8 mm
NCI-H23
  inhibition of growth at 10 µM: 10.3%
Pseudomonas aeruginosa
  zone of inhibition at 200 µg/disc: 8 mm
[6]
  inhibition of growth at 10 µM: 27.2%
HL-60(TB); HL-60, 48 h, read-out: GI
  inhibition of growth at 10 µM: 24.3%
Candida albicans
  zone of inhibition at 200 µg/disc: 8 mm
Dihydrofolate reductase
  IC50: 8 µM
A498; A498, 48 h, read-out: GI
  inhibition of growth at 10 µM: 25.9%
